Results taken from paper PMC6043372 (Journal of medicinal chemistry, 2018).
Like-named read-outs stand apart in the source and are kept apart here.

Tested on: Mtb H37Rv
Format: cell-based, Mycobacterium tuberculosis H37Rv

Structure (SMILES)	spontaneous resistance mutation frequency	spontaneous resistance mutation frequency (Mtb H37Rv, 12 at 4× and 8× MIC90)
CCCCCCCCn1cc(CN2CCC3(CC2)OCCCO3)c2ccc(OC)cc21 [Compound 12]	10^−8 /CFU	–
CCCCCCCCn1cc(CN2CCCCCC2)c2c(F)cccc21 [Compound 71, 3-(azepan-1-ylmethyl)-4-fluoro-1-octyl-1H indole]	–	< 10^−9 /CFU
